Measurements: patent US6878522B2, “Methods for the identification of compounds useful for the treatment of disease states mediated by prostaglandin D2” (priority 2000, dated 2005)

Legend:
guinea pig eyes = settings: topical, cited from earlier work; for microvascular leakage followed by conjunctival inflammation: 6-hour post challenge
[1] = tested on: human whole blood eosinophil; test: Human whole blood eosinophil actin-polymerization response; assay type: cell-based; settings: read-out: Actin-polymer EC50
Text: Yet another secondary screening assay is an actin polymerization assay. Another biological effect of the interaction of PGD2 with CRTH2 is actin polymerization. Thus, an actin polymerization assay may be used as a secondary screen to characterize the activity of a compound isolated in the primary screening assays of the invention. In one embodiment, actin polymerization may be assayed using an actin-specific fluorescent label, nitrobenzoxadiazole (NBD)-phallacidin, which binds polymerized actin fiber. In a specific embodiment, the assay may be performed as follows: cell preparations are resuspended at 5-10×10^6 cells/ml in RPMI 1640 plus 10 mM HEPES, 100/10 Pen/Strep, and 0.5% FCS. The cell suspension is aliquoted (100 μL per well) into a 96-well U-bottom polypropylene microtiter plate. 50 ul of the appropriate stimulus (PGD2 or test compound, or both PGD2 and test compound) is added using an 8-channel pipette followed exactly 25 seconds later by 50 ul of a stopping solution which contains lysophosphotidylcholine (0.5 mg/ml), Hank's balanced salt solution (100 ul 10×), 16% formaldehyde (800 ul), and 6.6 uM NBD-phallacidin in MEOH (100 ul). The plate is allowed to sit at room temperature for 15 minutes. The plate is then centrifuged at 1000 rpm for 5 minutes, the supernatants flicked off and the cell pellets resuspended in 250 ul PBS plus 2%FCS and 0.2% sodium azide. Each sample is then read on a FACS Caliber instrument. Cells are gated using the forward scatter/side scatter data in the lymphocyte area. Responses are measured by the change in median FL-1 fluorescence between vehicle treated cells and stimulus treated cells. Test compounds can be assayed in the presence and absence of PGD2, and compared to a sample containing PGD2 alone. A compound that reduces PGD2-induced actin polymerization of CRTH2 cells is identified as a candidated CRTH2 antagonist.

[2] = inhaled, asthmatics; cited from earlier work
DP receptor = target: T1, DP receptor (Homo sapiens, UniProt Q13258); test: Competition with 3H-PGD2 binding at the DP receptor (Examples 6-9); settings: control, cold PGD2, 7 trials
T1 sequence (Q13258 1-359): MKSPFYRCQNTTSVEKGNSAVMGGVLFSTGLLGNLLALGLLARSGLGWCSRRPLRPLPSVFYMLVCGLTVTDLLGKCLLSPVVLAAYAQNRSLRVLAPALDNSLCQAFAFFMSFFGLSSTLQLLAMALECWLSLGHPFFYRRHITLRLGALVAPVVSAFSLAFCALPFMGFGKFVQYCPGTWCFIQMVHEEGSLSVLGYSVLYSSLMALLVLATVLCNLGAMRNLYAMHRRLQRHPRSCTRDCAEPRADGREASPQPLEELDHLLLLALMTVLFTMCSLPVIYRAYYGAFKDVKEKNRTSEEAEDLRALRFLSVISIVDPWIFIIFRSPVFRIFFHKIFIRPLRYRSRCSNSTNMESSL
Protocol: To directly determine the binding affinity of CRTH2 for PGD2, the following binding assay was used. Transfected and parental 300-19 cells were washed twice at room temperature with assay buffer, and resuspended at a concentration of 2×10^7 cells/ml. Using a 96-well U-bottom polypropylene plate (Costar, Corning Inc., Acton, Mass.), the assay was set up as follows: 50 μl of vehicle (0.3% DMSO in assay buffer, total wells) or of […] cold PGD2 (NS wells); 50 μl cells (2×10^7 cells/ml for 10^6 cells per well); 50 μl 6 nM [3H]-PGD2. The plate was allowed to incubate for 20 min at RT before centrifugation (2800 rpm, Sorval RT6000, 5 min, 4° C.). The plate was harvested (Packard Unifilter plate GF/C, previously soaked in 3% PEI for at least 1 hr) with cold assay buffer using a Packard Filtermate Cell Harvester (6×150 μl buffer wash per well). The filterplate was dried overnight. After the addition of 50 μl scintillation fluid (Packard Microscint 0), the plate was counted in a Packard Topcount scintillation counter (1 min per well). […]
In the assay, the capacity of each D-ring compound to compete with binding of ^3H-PGD2 was measured at both the CRTH2 and DP receptors, and an IC50 value (in μM) was determined. […]

TP receptor = target: T2, TP receptor (Homo sapiens, UniProt P21731); settings: cited from earlier work
T2 sequence (P21731 1-343): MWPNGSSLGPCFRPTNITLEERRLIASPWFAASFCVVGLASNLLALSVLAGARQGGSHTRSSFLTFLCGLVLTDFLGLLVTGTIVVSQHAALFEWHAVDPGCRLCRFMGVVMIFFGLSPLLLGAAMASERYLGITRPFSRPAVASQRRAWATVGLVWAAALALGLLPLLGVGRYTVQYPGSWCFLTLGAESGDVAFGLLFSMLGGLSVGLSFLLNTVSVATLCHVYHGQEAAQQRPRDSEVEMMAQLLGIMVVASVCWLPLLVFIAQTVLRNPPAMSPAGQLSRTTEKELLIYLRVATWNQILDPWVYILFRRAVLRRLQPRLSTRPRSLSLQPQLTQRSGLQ

EC50 [1]	Compound	microvascular leakage followed by conjunctival inflammation (guinea pig eyes)	ocular hypotension (guinea pig eyes)	bronchoconstriction potency relative to PGF2α [2]	bronchoconstriction potency relative to histamine [2]	IC50 (DP receptor)	Ki (TP receptor)
> 1000 nM	O=C(O)CCCCCCC1C(=O)NC(=O)N1CCC(O)C1CCCCC1 (stereo not drawn) [BW-245C]	BW-245C-insensitive	mimicked by BW-245C				
> 300000 nM	CCCCC[C@H](O)/C=C/[C@H]1[C@H](O)CC(=O)[C@@H]1C/C=C\CCCC(=O)O [PGE2]						
1900 nM	CCCCC[C@H](O)/C=C/[C@@H]1[C@@H](C/C=C\CCCC(=O)O)[C@@H](O)C[C@H]1O [PGF2α]						

Compound	EC50 [1]	microvascular leakage followed by conjunctival inflammation (guinea pig eyes)	ocular hypotension (guinea pig eyes)	bronchoconstriction potency relative to PGF2α [2]	bronchoconstriction potency relative to histamine [2]	IC50 (DP receptor)	Ki (TP receptor)
CCCCC[C@H](O)/C=C/[C@H]1C(=O)C[C@H](O)[C@@H]1C/C=C\CCCC(=O)O [PGD2, prostaglandin D2]	4 nM	microvascular leakage followed by conjunctival inflammation	elicits ocular hypotension	3.5 ×	30 ×	23.4 nM	75000 nM
